# Test results taken from paper PMC5520057, “Modulation of nongenomic activation of PI3K signalling by tetramerization of N-terminally-cleaved RXRα” (Nature Communications, 2017).
# Key:
# RXRα-LBD = target: T1, RXRα-LBD (Homo sapiens, UniProt P19793); experiment: Non-denaturing gel electrophoresis, oligomeric state of RXRα-LBD; type: biochemical; conditions: purified RXRα-LBD; 9-cis-RA (0.5 μM) and/or K-80003 (20 μM), 3 h at 4 °C
# T1 construct: The human RXRα LBD (residues Thr223 to Thr462); made in house; host or cells: Escherichia coli BL21
# T1 sequence (P19793 223-462): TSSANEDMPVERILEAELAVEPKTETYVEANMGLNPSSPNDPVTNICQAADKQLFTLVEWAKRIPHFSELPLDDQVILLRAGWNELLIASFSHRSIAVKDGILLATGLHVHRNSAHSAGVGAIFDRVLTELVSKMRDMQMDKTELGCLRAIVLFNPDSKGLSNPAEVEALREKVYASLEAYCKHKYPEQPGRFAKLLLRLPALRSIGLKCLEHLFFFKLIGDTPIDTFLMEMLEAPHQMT
# Method: (§1) The human RXRα LBD (residues Thr223 to Thr462) cloned as an N-terminal histidine-tagged fusion protein in pET15b expression vector was expressed in Escherichia coli BL21 strain (Stratagene). After sonication, cell extract was incubated with the His60 Ni Superflow resin, and His-tagged RXRα-LBD-resin complexes were washed, eluted and concentrated to 5 mg ml^−1 for subsequent trails. For crystallization experiment, bovine thrombin (Sigma) was used to cleave the His tag from the purified His-tagged RXRα-LBD. The resulting His tag was removed on the Resource-Q column (GE) using 0.1–1 M NaCl gradient and the Tris-Cl pH 8 buffer. RXRα-LDB was further purified using gel filtration on a Superdex 200 2660 column (GE) pre-equilibrated with the 75 mM NaCl, 20 mM Tris-Cl buffer (pH 8).
# RXRα-LBD/L433D = experiment: Non-denaturing gel electrophoresis, L433D mutant; type: biochemical, human; conditions: K-80003 (20 μM), 3 h at 4 °C
# Method: as §1
# RXRα-LBD/Q275E = experiment: Non-denaturing gel electrophoresis, Q275E mutant; type: biochemical, human; conditions: K-80003 (20 μM), 3 h at 4 °C
# Method: as §1
# RXRα-LBD/F439A = experiment: Non-denaturing gel electrophoresis, F439A mutant; type: biochemical, human; conditions: K-80003 (20 μM), 3 h at 4 °C
# Method: as §1
# tRXRα = experiment: BS3 crosslinking, transfected tRXRα; type: cell-based
# Method: (§2) Cell lysates were then prepared and incubated with bis[sulfosuccinimidyl] suberate (BS3, Pierce) dissolved in dimethyl sulfoxide to a final concentration of 1 mM. The reactions were stopped with protein gel loading buffer. Samples were resolved by SDS/PAGE in 8% acrylamide gels and protein bands were visualized by western blotting.
# RXRα = experiment: BS3 crosslinking, transfected full-length RXRα; type: cell-based; conditions: HepG2 cells; K-80003 (5 × 10^−6 M) for 6 h; BS3 1 mM; western blotting
# Method: as §2
# MMTV-PyMT mammary tumour = experiment: MMTV-PyMT tumours, western blotting; type: in vivo, MMTV-PyMT mice; conditions: diet with K-80003 (100 mg kg^−1) for 4 weeks
# Method: Proteins or cell lysates were electrophoresed by SDS-PAGE gel and transferred to polyvinylidene difluoride (PVDF) membrane. The membranes were blocked with 5% skimmed milk in TBST (50 mM Tris-HCl (pH 7.4), 150 mM NaCl and 0.1% Tween20) for 1 h, then incubated with primary antibodies and secondary antibodies and detected using ECL system (Thermo). The dilutions of the primary antibodies were anti-RXRα (ΔN197, Santa Cruz) in 1:1,000, anti-PARP (H-250, Santa Cruz) in 1:3,000, anti-p85α (Millipore) in 1:1,000, anti-p-AKT (D9E, Cell Signaling Technology) in 1:1000, anti-AKT1/2/3 (H-136, Santa Cruz) in 1:1,000, anti-β-actin (Sigma) in 1:5,000, anti-c-myc (9E10, Santa Cruz) in 1:3,000, anti-HA (F-7, Santa Cruz) in 1:3,000, anti-Flag (F1804, Sigma) in 1:3,000. Images of all uncropped western blots can be found in Supplementary Figs 10–14.
# For nude mice xenograft study, Myc-RXRα and Myc-tRXRα cloned into pcdna3.0 vector were stably transfected into MCF-7 cells, and the resulting stable clones and control clone (2 × 10^6 cells in 100 μl) were injected subcutaneously into nude mice (BALB/c, SPF grade, 16–18 g, 4–5-week old). For drug treatment, mice were intraperitoneally injected (i.p.) daily with K-80003 (20 mg kg^−1) diluted in Tween-80 or vehicle (tween-80). Body weight and tumour size were measured every 2 days. […]
smiles,measurement,setting,value
CC1=C(CC(=O)O)c2cc(F)ccc2/C1=C\c1ccc(C(C)C)cc1 [K-80003],effect on RXRα-LBD oligomeric state,RXRα-LBD,induced an accumulation of tetramers
same,effect on tetramerization of RXRα-LBD/L433D,RXRα-LBD/L433D,failed to bind to RXRα-LBD/L433D (Supplementary Fig. 5a) and promote its tetramerization
same,effect on tetramerization of Q275E mutant,RXRα-LBD/Q275E,impaired the tetramerization of respective mutants by K-80003
same,effect on tetramerization of F439A mutant,RXRα-LBD/F439A,impaired the tetramerization of respective mutants by K-80003
same,tetramerization of tRXRα with cotransfected RXRα A/B domain,"tRXRα; HEK293T cells, tRXRα together with RXRα-A/B, K-80003, BS3, one of three similar experiments",completely suppressed the effect of K-80003 on promoting tRXRα tetramerization
same,tetramerization of tRXRα,"tRXRα; HepG2 cells, K-80003 (5 × 10^−6 M) for 6 h, BS3 1 mM, western blotting",effectively promoted the formation of tRXRα tetramers
same,tetramerization of full-length RXRα,RXRα,failed to promote the tetramerization of the full-length RXRα
same,PARP cleavage in PyMT tumours,MMTV-PyMT mammary tumour,induction of PARP cleavage
same,cyclin D expression in PyMT tumours,MMTV-PyMT mammary tumour,inhibition of cyclin D expression
